The values below come from ChEMBL document CHEMBL4196075, “Structure-based optimization of a series of selective BET inhibitors containing aniline or indoline groups” (Eur J Med Chem, 2018).

Holding throughout (assay type): ADME, organism-based
Holding throughout (details): in vivo

Data set [1] can be described thus: Tmax in ICR (CD-1) mouse at 20 mg/kg, po via gavage by mass spectrometric method.
Data set [2] in a line: Cmax in ICR (CD-1) mouse at 20 mg/kg, po via gavage by mass spectrometric method. More on the design: dose 20 mg/kg, route oral.
Data set [3] is described as follows: AUC (0 to t) in ICR (CD-1) mouse at 20 mg/kg, po via gavage by mass spectrometric method.
Data set [4] can be described thus: Tmax in ICR (CD-1) mouse at […], po via gavage by mass spectrometric method.
The nature of data set [5]: Cmax in ICR (CD-1) mouse at […], po via gavage by mass spectrometric method.
Data set [6] is described as follows: AUC (0 to t) in ICR (CD-1) mouse at […], po via gavage by mass spectrometric method.

In the case of `Cc1ccc(NC(=O)c2ccc3c(c2)N(C2CC2)C(C)C(=O)N3C)c(C)c1` (centres undefined), the Tmax in data set [1] turned out to be 18 min. The same compound yielded a peak concentration (Cmax) in data set [2] of 1780 ng/mL. Also, the exposure AUC(0-t) in data set [3] was determined as 2660 ng·h/mL.
For `Cc1ccc2c(c1)CCN2C(=O)c1ccc2c(c1)N(C1CC1)C(C)C(=O)N2C` (centres undefined) the same measures were 15 min, 335 ng/mL and 189 ng·h/mL.
On to `Cc1ccc2c(c1)CCN2C(=O)c1ccc2c(n1)N(C1CC1)C(C)C(=O)N2C` (centres undefined), for which the Tmax in data set [4] amounted to 19.8 min. In data set [5], the maximum concentration (Cmax) was found to be 189 ng/mL. The same compound came in with an exposure AUC(0-t) in data set [6] of 383 ng·h/mL.

By Tmax is commonly meant the time at which the peak concentration occurs. The Cmax is the maximum level reached in the sampled fluid or tissue. As a reminder, the AUC(0-t) is exposure summed from dosing to a finite time, without extrapolation to infinity. Low readings indicate low exposure, high ones high exposure.
